pIC50: −log10 of the molar value. Activity calls are given as the source filed them. The rule behind the calls is not given here.
Assays:
[1] = Reduction of C26:0 /C16:0 LPC level in ABCD1 KO mouse blood at 5 mg/kg, po qd for 8 months by LC-MS/MS analysis relative to control; type: functional; design: scale not given: the % may be the effect or the level left; details: 5840 h
[2] = Apparent permeability across apical to basolateral side in wild-type dog MDCK cells by LC-MS analysis; type: ADME, cell-based, Canis lupus familiaris
Fibroblast [3] = assay: Reduction in C26:0/C16:0 lysophosphatidyl choline levels in primary human CALD patient-derived fibroblast incubated for 48 hrs; type: functional, cell-based
[4] = biological target: Voltage-gated inwardly rectifying potassium channel KCNH2 (Homo sapiens, UniProt Q12809); assay: Inhibition of human ERG by patch-clamp assay; type: toxicity
Chain of Voltage-gated inwardly rectifying potassium channel KCNH2 (Q12809 whole entry): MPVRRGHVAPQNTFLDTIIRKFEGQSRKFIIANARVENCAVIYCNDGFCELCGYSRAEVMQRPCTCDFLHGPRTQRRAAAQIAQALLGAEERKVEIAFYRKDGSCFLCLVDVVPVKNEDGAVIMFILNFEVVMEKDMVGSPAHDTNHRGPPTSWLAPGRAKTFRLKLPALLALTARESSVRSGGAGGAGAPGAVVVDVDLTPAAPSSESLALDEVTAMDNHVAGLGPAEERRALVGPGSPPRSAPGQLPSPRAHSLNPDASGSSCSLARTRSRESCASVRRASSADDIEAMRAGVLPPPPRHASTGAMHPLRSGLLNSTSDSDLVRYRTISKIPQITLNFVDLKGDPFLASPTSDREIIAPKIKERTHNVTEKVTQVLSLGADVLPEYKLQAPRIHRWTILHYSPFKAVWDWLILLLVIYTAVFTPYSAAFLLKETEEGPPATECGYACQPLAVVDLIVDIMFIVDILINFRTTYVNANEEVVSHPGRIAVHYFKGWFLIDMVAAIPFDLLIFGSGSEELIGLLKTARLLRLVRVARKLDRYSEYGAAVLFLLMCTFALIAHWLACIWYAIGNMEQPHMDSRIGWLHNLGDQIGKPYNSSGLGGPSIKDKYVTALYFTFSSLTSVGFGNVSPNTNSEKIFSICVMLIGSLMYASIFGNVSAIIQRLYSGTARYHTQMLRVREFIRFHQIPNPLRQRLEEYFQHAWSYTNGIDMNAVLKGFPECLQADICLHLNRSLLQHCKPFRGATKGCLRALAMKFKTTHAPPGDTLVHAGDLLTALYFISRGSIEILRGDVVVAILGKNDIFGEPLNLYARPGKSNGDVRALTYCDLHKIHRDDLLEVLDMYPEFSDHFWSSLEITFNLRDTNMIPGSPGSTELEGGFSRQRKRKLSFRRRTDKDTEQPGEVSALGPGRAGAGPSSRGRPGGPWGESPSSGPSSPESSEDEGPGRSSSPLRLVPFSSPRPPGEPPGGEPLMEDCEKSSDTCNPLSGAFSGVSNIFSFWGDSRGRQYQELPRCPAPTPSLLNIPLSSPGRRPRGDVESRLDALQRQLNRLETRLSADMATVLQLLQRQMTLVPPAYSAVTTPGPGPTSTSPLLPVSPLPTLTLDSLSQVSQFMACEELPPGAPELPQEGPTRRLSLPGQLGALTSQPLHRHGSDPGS

[5] = Toxicity in juvenile Sprague-Dawley rat assessed as clonic convulsions 5 to 75 mg/kg/day, po treatment started from postnatal day 75 to 114 days; type: organism-based; details: in vivo, dose lower 5 mg/kg/day, time lower 75 day, dose upper 75 mg/kg/day, time upper 114 day
[6] = Plasma protein binding in human at 5 uM; type: ADME, cell-free; details: read-out: PPB (converted)
[7] = Reduction in C26:0/C16:0 LPC level in ABCD1 knock out mouse CNS at 5 mg/kg, po qd measured after 8 months of dosing by LC-MS/MS analysis; type: functional; design: scale not given: the % may be the effect or the level left; details: 5840 h
[8] = Reduction in C26:0/C16:0 LPC level in ABCD1 knock out mouse CNS at 10 mg/kg, po qd measured after 3 months of dosing by LC-MS/MS analysis; type: functional; design: scale not given: the % may be the effect or the level left; details: 2190 h
HepG2 = assay: Cytotoxicity against human HepG2 cells assessed as decrease in intracellular ATP levels incubated for 72 hrs by Cell Titer-Glo luminescence assay; type: functional; details: read-out: TC50 (the source's name)
[9] = Toxicity in Sprague-Dawley rat assessed as ocular hyperplasia at 5 mg/kg/day, po administered for 8 weeks by microscopic observation analysis; type: organism-based; details: in vivo, 1344 h
[10] = Toxicity in Cynomolgus monkey assessed as dry and red scaly areas on abdomen at 5 to 50 mg/kg/day, po administered for 14 days by macroscopic observation analysis; type: organism-based, Macaca fascicularis; details: in vivo, 336 h, dose 5-50 mg/kg/day, time 14 day
[11] = Toxicity in Cynomolgus monkey assessed as ataxia at 50 mg/kg/day, po administered for 14 days; type: organism-based, Macaca fascicularis; details: in vivo, 336 h, time 14 day
[12] = Toxicity in Cynomolgus monkey assessed as multifocal gliosis at 20 to 50 mg/kg/day, po administered for 14 days; type: organism-based, Macaca fascicularis; details: in vivo, 336 h, dose 20-50 mg/kg/day, time 14 day
[13] = biological target: Rho-associated protein kinase 2 (Homo sapiens) (UniProt O75116); assay: Inhibition of ROCK 2 (unknown origin) at 10 uM
Chain of Rho-associated protein kinase 2 (Homo sapiens) (O75116 whole entry, looked up): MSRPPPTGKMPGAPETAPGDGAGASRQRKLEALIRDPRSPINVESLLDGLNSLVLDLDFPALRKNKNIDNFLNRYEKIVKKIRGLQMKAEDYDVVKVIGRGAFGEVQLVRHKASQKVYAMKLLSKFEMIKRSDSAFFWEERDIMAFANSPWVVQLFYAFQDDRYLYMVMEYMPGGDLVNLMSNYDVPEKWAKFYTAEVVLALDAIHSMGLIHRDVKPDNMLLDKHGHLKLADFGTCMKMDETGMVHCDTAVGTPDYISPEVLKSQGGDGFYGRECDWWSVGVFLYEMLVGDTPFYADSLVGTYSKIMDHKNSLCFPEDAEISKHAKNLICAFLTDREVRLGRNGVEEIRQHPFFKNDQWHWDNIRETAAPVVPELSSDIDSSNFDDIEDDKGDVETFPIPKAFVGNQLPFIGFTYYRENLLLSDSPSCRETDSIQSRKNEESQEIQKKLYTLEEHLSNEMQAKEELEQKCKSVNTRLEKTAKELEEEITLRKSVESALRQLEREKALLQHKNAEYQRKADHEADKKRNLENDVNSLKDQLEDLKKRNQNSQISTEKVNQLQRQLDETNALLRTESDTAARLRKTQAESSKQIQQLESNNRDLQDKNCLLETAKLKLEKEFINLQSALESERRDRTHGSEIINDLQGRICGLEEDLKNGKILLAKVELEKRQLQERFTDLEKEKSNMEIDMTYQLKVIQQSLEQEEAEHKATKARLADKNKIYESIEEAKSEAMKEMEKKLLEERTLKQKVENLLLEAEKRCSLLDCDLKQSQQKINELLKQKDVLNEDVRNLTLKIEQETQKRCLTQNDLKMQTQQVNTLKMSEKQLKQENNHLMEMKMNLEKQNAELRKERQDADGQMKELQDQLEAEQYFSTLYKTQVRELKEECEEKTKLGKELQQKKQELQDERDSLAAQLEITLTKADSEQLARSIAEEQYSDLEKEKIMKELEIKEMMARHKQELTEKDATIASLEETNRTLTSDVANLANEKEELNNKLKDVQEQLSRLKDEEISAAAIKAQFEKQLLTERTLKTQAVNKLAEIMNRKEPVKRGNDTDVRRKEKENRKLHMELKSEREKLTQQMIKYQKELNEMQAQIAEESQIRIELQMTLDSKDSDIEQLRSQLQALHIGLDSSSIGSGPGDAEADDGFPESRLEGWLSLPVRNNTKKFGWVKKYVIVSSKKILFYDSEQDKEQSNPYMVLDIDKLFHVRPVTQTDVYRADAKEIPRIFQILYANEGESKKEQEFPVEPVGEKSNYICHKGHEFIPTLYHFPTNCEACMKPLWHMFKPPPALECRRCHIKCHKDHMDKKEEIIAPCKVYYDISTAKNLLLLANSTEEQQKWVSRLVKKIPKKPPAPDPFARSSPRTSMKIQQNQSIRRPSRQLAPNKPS

[14] = Toxicity in telemetry-implanted Cynomolgus monkey assessed as higher baseline beta EEG activity at 5 to 20 mg/kg/day,NG administered for 7 days; type: organism-based, Macaca fascicularis; details: in vivo, po, 168 h, dose 5-20 mg/kg/day, time 7 day
[15] = Toxicity in Cynomolgus monkey assessed as neurological signs of convulsions at 50 mg/kg/day, po administered for 14 days; type: organism-based, Macaca fascicularis; details: in vivo, 336 h, time 14 day
Mus musculus [16] = assay: Reduction in C26:0/C16:0 LPC level in high fat diet fed ABCD1 knock out mouse blood at 1 to 8 mg/kg, po qd measured on day 28 after 7 days of treatment discontinuation by LC-MS/MS analysis; type: functional, organism-based; details: dose 1-8 mg/kg, time 28.0 day
[17] = Reduction in C26:0 LPC level in ABCD1 knock out mouse blood at 0.5 mg/kg, po qd for 105 days by LC-MS/MS analysis relative to control; type: functional; design: scale not given: the % may be the effect or the level left; details: time 105 day
[18] = Tmax in Cynomolgus monkey at 3 mg/kg, po upto 24 hrs by LC/MS/MS analysis; type: ADME, organism-based, Macaca fascicularis; details: in vivo
[19] = Reduction in C26:0/C16:0 LPC level in ABCD1 knock out mouse CNS at 16 mg/kg, po qd measured after 6 months of dosing by LC-MS/SMS analysis; type: functional; design: scale not given: the % may be the effect or the level left; details: 4380 h
Fibroblast [20] = assay: Reduction in C26:0 lysophosphatidyl choline synthesis in primary human CALD patient-derived fibroblast incubated for 48 hrs; type: functional, cell-based; details: DDE = dose-dependent effect
[21] = Toxicity in Sprague-Dawley rat assessed as corneal neovascularization at 5 mg/kg/day, po administered for 8 weeks by macroscopic observation analysis; type: organism-based; details: in vivo, 1344 h
[22] = Reduction in C26:0 LPC level in ABCD1 knock out mouse blood assessed as fold increase at 0.5 to 32 mg/kg, po qd for 105 days by LC-MS/MS analysis; type: functional; details: dose 0.5-32 mg/kg, time 105 day
[23] = Increase in C20:0/C16:0 total VLCFA levels in ABCD1 knock out mouse CNS at 1 to 10 mg/kg, po qd measured after 3 months of dosing by LC-MS/MS analysis; type: functional; details: dose 1-10 mg/kg, 2190 h
[24] = Toxicity in Cynomolgus monkey assessed as skin lesions at 5 to 50 mg/kg/day, po administered for 14 days; type: organism-based, Macaca fascicularis; details: in vivo, 336 h, dose 5-50 mg/kg/day, time 14 day
[25] = Toxicity in Sprague-Dawley rat assessed as decrease in body weight at 5 to 50 mg/kg/day, po administered for 8 weeks; type: organism-based; details: in vivo, 1344 h, dose 5-50 mg/kg/day
[26] = Toxicity in Sprague-Dawley rat assessed as ocular inflammation at 5 mg/kg/day, po administered for 8 weeks by microscopic observation analysis; type: organism-based; details: in vivo, 1344 h
[27] = biological target: T1, Very long chain fatty acid elongase 7 (Homo sapiens, UniProt A1L3X0); assay: Inhibition of ELOVL7 (unknown origin) using C18-acyl-CoA as substrate by radiometric enzyme assay
T1 sequence (A1L3X0 whole entry): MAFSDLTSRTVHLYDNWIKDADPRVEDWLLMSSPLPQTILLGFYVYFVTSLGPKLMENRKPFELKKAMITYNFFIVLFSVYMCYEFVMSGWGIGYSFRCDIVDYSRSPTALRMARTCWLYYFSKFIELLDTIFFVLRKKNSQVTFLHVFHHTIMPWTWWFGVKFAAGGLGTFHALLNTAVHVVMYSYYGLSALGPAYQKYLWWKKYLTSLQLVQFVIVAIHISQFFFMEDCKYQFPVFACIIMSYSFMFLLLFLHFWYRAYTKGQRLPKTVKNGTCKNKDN

[28] = Toxicity in Cynomolgus monkey assessed as minimal focal gliosis at 20 to 50 mg/kg/day, po administered for 14 days; type: organism-based, Macaca fascicularis; details: in vivo, 336 h, dose 20-50 mg/kg/day, time 14 day
Mus musculus [29] = assay: Reduction of C26:0 LPC level in ABCD1 KO mouse blood at 5 to 20 mg/kg, po qd for 8 months continuous dosing by LC-MS/MS analysis; type: functional, organism-based; details: dose 5-20 mg/kg

Papp A→B [2]: 10.1 ×10⁻⁶ cm/s
fraction unbound at 5 µM [6]: 0.062
inhibition [13]: > 50%
Tmax [18]: 2.3 h
pIC50 [27]: < 3.30
Compound: O=C(Nc1ccn(-c2ccnc(F)c2)n1)C1(c2ccccc2F)CC1
Activity [1]: 60%
Activity (Fibroblast [3]): Active
pIC50 [4]: < 4.52
Activity [5]: Toxic
Activity [7]: 65%
Activity [8]: 34%
CC50 (HepG2): > 100 µM
Activity [9]: Toxic
Activity [10]: Toxic
Activity [11]: Toxic
Activity [12]: Toxic
Activity [14]: Toxic
Activity [15]: Toxic
Activity (Mus musculus [16]): Active
Activity [17]: 50%
Activity [19]: 55%
Activity (Fibroblast [20]): Dde
Activity [21]: Toxic
fold change (FC) [22]: 10
Activity [23]: <6%
Activity [24]: Toxic
Activity [25]: Toxic
Activity [26]: Toxic
Activity [28]: Toxic
Activity (Mus musculus [29]): Active
